Where “and” joins values, the source holds several entries; their conditions need not be identical. Equal entries are not always repeated. Where two headings read alike, the source gives them in different places.
How the values were obtained:
[1] = test system: E. rostratum conidia; experiment: conidia growth inhibition ATP content assay (RPMI, 1536-well); type: cell-based, Exserohilum rostratum
In short: (§1)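 Hyphal fragments (15,000/well in PBS, batch-normalized by carbohydrate OD490) or conidia (250/well in RPMI) were exposed to compound at 46 µM in the primary screen for 24 h at 30 °C. Viability was read as ATPLite luminescence after 15 min at RT and scaled between DMSO (100%) and 46 µM amphotericin B (0%).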

[2] = test system: E. rostratum; design: method as in earlier work; details: filamentous fungi M38-A2, this isolate; cited from earlier work
[3] = test system: E. rostratum hyphal fragments; experiment: colony formation assay of hyphal fragments; type: cell-based, Exserohilum rostratum; details: 2 times respective IC50, 37°C, 24 h; p<0.01
Experimental: 10 µl of hyphal suspension (processed as described above) was transferred to 1.7 mL microfuge tubes, each containing 28 nM amphotericin B, 242 nM posaconazole, or 10% DMSO in 1 ml PBS. Tubes containing hyphae and drug were incubated at 37°C in a shaking incubator for 24 h, then 200 µl of the hyphae drug suspension was spread on Yeast Extract Peptone Dextrose (YPD) plates for 24 h at 30°C and the number of colony forming units were scored. The experiments were performed in triplicate.
Mixtures were cultured at 37°C in a shaking incubator for 24 h, then the hyphal suspensions were inoculated on Yeast Extract Peptone Dextrose (YPD) plates that were incubated for 1 day. The number of colonies on each YPD plate was counted.

[4] = test system: E. rostratum hyphal fragments; experiment: hyphal fragment fungicidal ATP content assay (PBS, 1536-well); type: cell-based, Exserohilum rostratum; details: for IC50 / Emax: Exserohilum rostratum
In short: as §1

[5] = test system: SH-SY5Y cells; experiment: SH-SY5Y cytotoxicity counter-screen (ATP content assay); type: cell-based, Human; details: for SH-SY5Y % Max. Resp.: Table 2, SH-SY5Y, inact. = no significant activity at 46 µM; for SH-SY5Y % M. Res. / SH-SY5Y IC50: Table S1; for SH-SY5Y % M. Res.: Inact. = no significant activity at 46 µM; for SH-SY5Y IC50: Inact. = no significant activity at the highest compound concentration (46 µM); for cytotoxicity in SH-SY5Y mammalian cells: concentration up to 46 µM
In short: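 SH-SY5Y human neuroblastoma cells grown in DMEM/F-12 with 10% FBS at 37 °C, 5% CO2. Viability counter-screen measured cellular ATP by luciferase luminescence (ATPLite) in 1536-well format.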

[6] = design: method as in PMID 12445558; details: 8 hours after intravenous (iv) administration of 20 mg/kg; cited from earlier work
[7] = test system: E. rostratum; experiment: drug repurposing screen against E. rostratum; type: cell-based, Exserohilum rostratum; details: in our experiments
From the text: The library of pharmacologically active compounds (LOPAC) consists of 1280 small molecules with characterized biological activities. The LOPAC library (Sigma-Aldrich) has been extensively used for HTS assay validations, [18]. The NIH Chemical Genomics Center Pharmaceutical (NPC) collection was constructed in-house through a combined effort of compound purchasing and custom synthesis and recently expanded to 4096 compounds. In this drug libarary, 52% of which are drugs approved for human or animal use by the United States Food and Drug Administration (FDA), 22% are drugs approved in Europe, Canada, or Japan, and the remaining 25% are compounds that have entered clinical trials or are research compounds commonly used in biomedical research. […] 2.5 µl/well PBS was dispensed into 1536-well plates using a Multidrop-Combi dispenser. Compound in DMSO solution was transferred in a volume of 23 nl/well using a NX-TR pintool station (WAKO Scientific Solutions, San Diego, CA). This additional PBS step for compound addition was designed to prevent the potential fungal contamination of compound libraries. The hyphal fragments in PBS were then added at 2.5 µl/well for a final seeding density of 15,000 hyphal fragments/well using the Multidrop-Combi dispenser. The final compound concentration was 46 µM in the primary screen. […]

[8] = Exserohilum rostratum, 24 h, Table 2, 24 h, inact. = no significant activity at the highest compound concentration (46 µM), read-out: Conidia IC50
[9] = Exserohilum rostratum, Table 2, 46 µM Amphotericin B = 100%, inact. = no significant activity at 46 µM, read-out: Conidia % Max. Resp.
[10] = Exserohilum rostratum, Table S1, 46 µM Amphotericin B = 100%, Inact. = no significant activity at 46 µM, read-out: Conidia % M. Res.
[11] = Table 2, 46 µM Amphotericin B = 100%, inact. = no significant activity in the primary screen, read-out: Hyphae % Max. Resp.
[12] = Table 2, 24 h, inact. = no significant activity in the primary screen, read-out: Hyphae IC50
[13] = Table S1, 46 µM Amphotericin B = 100%, Inact. = no significant activity in the primary screen, read-out: Hyphae % M. Res.
[14] = Exserohilum rostratum, Figure 5, read-out: IC50 Conidia
[15] = Figure 5, read-out: IC50 Hyphae

Compound	IC50 [1, 8] [nM]	Emax [1, 9] [%]	hyphae-derived colony forming units (CFU) compared to DMSO control [3]	Emax [4, 11] [%]	IC50 [4, 12] [nM]	SH-SY5Y % Max. Resp. ([5]; 46 µM Amphotericin B = 100%)	SH-SY5Y % Max. Resp. [5]	IC50 [1, 14] [nM]	IC50 [4, 15] [nM]	cytotoxicity in SH-SY5Y mammalian cells [5]	other results
C[C@@H]1[C@H](O)[C@@H](C)/C=C/C=C/C=C/C=C/C=C/C=C/C=C/[C@H](O[C@@H]2O[C@H](C)[C@@H](O)[C@H](N)[C@@H]2O)C[C@@H]2O[C@](O)(C[C@@H](O)C[C@@H](O)[C@H](O)CC[C@@H](O)C[C@@H](O)CC(=O)O[C@H]1C)C[C@H](O)[C@H]2C(=O)O [Amphotericin B]	12	104	significantly reduced	84	14	inact.	inact.				IC50 ([1]; 250 conidia/well, read-out: conidia IC50): 9.71 nM; IC50 ([1]; Exserohilum rostratum, Table S1, Inact. = no significant activity at the highest compound concentration (46 µM), read-out: Conidia IC50): 806 nM; IC50 ([1]; Exserohilum rostratum, 250 conidia/well, read-out: conidia IC50): 9.41 nM; Emax [1, 10]: 104%; value determined from the microdilution method [2]: 60 nM; IC50 ([4]; 15000 fragments/well, read-out: hyphae IC50): 12.4 nM; Emax [4, 13]: 84%; SH-SY5Y % M. Res. ([5]; 46 µM Amphotericin B = 100%): Inact.; SH-SY5Y IC50 [5]: Inact.
O=c1[nH]c(=O)n([C@H]2C[C@H](O)[C@@H](CO)O2)cc1F [Floxuridine]	288	29	significantly reduced	77	846	inact.	inact.				brain concentrations [6]: above 600 nM
CCC(C)n1ncn(-c2ccc(N3CCN(c4ccc(OCC5COC(Cn6cncn6)(c6ccc(Cl)cc6Cl)O5)cc4)CC3)cc2)c1=O (centres unmarked) [Itraconazole]	1240	100	significantly reduced	80	2190	inact.	inact.	1270	1970	no significant cytotoxicity	
N#C/C(=C1/SCC(c2ccccc2Cl)S1)n1ccnc1 (centres unmarked) [Lanoconazole]	380	103	significantly reduced	65	203	inact.	inact.	818	459	no significant cytotoxicity	
N#C/C(=C1/SC[C@@H](c2ccc(Cl)cc2Cl)S1)n1ccnc1 [Luliconazole]	4390	100	significantly reduced	82	6400	inact.	inact.				Emax [1, 10]: 100%; Emax [4, 13]: 82%; SH-SY5Y % M. Res. ([5]; 46 µM Amphotericin B = 100%): Inact.; SH-SY5Y IC50 [5]: Inact.
CC[C@@H]([C@H](C)O)n1ncn(-c2ccc(N3CCN(c4ccc(OC[C@@H]5CO[C@@](Cn6cncn6)(c6ccc(F)cc6F)C5)cc4)CC3)cc2)c1=O [Posaconazole]	97	106	significantly reduced	78	121	inact.	inact.	79	164	no significant cytotoxicity	value determined from the microdilution method [2]: 0.25 µg/ml and 360 nM
C=CC[C@@H]1/C=C(\C)C[C@H](C)C[C@H](OC)[C@H]2O[C@@](O)(C(=O)C(=O)N3CCCC[C@H]3C(=O)O[C@H](/C(C)=C/[C@@H]3CC[C@@H](O)[C@H](OC)C3)[C@H](C)[C@@H](O)CC1=O)[C@H](C)C[C@@H]2OC [Tacrolimus]	24	101	significantly reduced	83	32	inact.	inact.	36	31	no significant cytotoxicity	
C[C@@H](c1ncncc1F)[C@](O)(Cn1cncn1)c1ccc(F)cc1F [Voriconazole]	2900	101	significantly reduced	94	2600	inact.	inact.	3700	2820	no significant cytotoxicity	IC50 ([1]; Exserohilum rostratum, read-out: conidia IC50): 2910 nM; value determined from the microdilution method [2]: 2 µg/ml and 5.7 µM; IC50 ([4]; read-out: hyphae IC50): 2640 nM
CCCSc1ccc2nc(NC(=O)OC)[nH]c2c1 [albendazole]											activity against E. rostratum [7]: not active
Mepartricin											Conidia % M. Res. ([1]; Table S1, 46 µM Amphotericin B = 100%, Inact. = no significant activity at 46 µM): 80%; Hyphae % M. Res. ([4]; Table S1, 46 µM Amphotericin B = 100%, Inact. = no significant activity in the primary screen): Inact.; Hyphae IC50 ([4]; Table S1, Inact. = no significant activity in the primary screen): Inact.; IC50 [5]: 37200 nM; SH-SY5Y % M. Res. ([5]; 46 µM Amphotericin B = 100%): 38%
Phenylmercuric borate						99%	0.417%				Conidia % Max. Resp. ([1]; Table 2, 46 µM Amphotericin B = 100%, inact. = no significant activity at 46 µM): 103%; IC50 ([1]; Table 2, 24 h, inact. = no significant activity at the highest compound concentration (46 µM), read-out: Conidia IC50): 149 nM; Hyphae % Max. Resp. ([4]; Table 2, 46 µM Amphotericin B = 100%, inact. = no significant activity in the primary screen): inact.; Hyphae IC50 ([4]; Table 2, 24 h, inact. = no significant activity in the primary screen): inact.

— article PMC3749181, “Rapid Identification of Antifungal Compounds against Exserohilum rostratum Using High Throughput Drug Repurposing Screens” (PLoS ONE, 2013)
